The source of these data is patent US4992417A (Mount Sinai School of Medicine, priority 1988, dated 1991).

The target of assay [1] is T1, insulin receptors in rat liver plasma membranes (Rattus norvegicus, UniProt P15127).
T1 construct: Rat liver plasma membranes were prepared as described by Horvat et al; from tissue; host or cells: rat liver plasma membranes
The experiment in a line: Insulin receptor binding assay (competition with 125I-insulin).
Method: Following incubation for 45 min at 24° C., the mixtures were diluted with 2.0 ml of ice cold 0.1M sodium phosphate, pH 7.4, containing 0.1% fraction V bovine serum albumin and immediately filtered through cellulose-acetate filters. The filters were washed twice with the ice cold buffer, dried, and then radioactivity was counted in a scintillation counter using Filtron-X®.
Inhibition of binding, expressed as per cent of maximum, was plotted as a function of competitor concentration. […] The maximum binding in these assays amounted to 8.2% of the input radioactivity.
Inhibition of binding, expressed as per cent of maximum, was plotted as a function of competitor concentration.

Another assay has as its system rat adipocytes. The experiment in a line: Lipogenesis assay (conversion of [3-3H] glucose into lipids). The format is cell-based. The following applies: isolated rat adipocytes.
The test system of assay [2] is Guinea pig antiserum to porcine insulin. Description: Insulin radioimmunoassay. The format is binding. The following applies: competition with 125I-insulin for anti-insulin antiserum; ratio of slopes.
Method: After incubation at room temperature overnight, 0.2 ml of the precipitating antibody (goat anti-guinea pig-γ globulin) was added, and the tubes were further incubated overnight at room temperature. Immune precipitates were collected on cellulose-acetate filters and washed with two successive 1.0 mL portions of ice-cold assay buffer. Filters were dried and radioactivity was counted in a scintillation counter in Filtron-X®.
In the next assay the target is insulin receptor (Homo sapiens, UniProt P06213). To be noted: cited from earlier work; for potency compared with natural insulin: literature.

T1 sequence (P15127 27-759 limits assumed): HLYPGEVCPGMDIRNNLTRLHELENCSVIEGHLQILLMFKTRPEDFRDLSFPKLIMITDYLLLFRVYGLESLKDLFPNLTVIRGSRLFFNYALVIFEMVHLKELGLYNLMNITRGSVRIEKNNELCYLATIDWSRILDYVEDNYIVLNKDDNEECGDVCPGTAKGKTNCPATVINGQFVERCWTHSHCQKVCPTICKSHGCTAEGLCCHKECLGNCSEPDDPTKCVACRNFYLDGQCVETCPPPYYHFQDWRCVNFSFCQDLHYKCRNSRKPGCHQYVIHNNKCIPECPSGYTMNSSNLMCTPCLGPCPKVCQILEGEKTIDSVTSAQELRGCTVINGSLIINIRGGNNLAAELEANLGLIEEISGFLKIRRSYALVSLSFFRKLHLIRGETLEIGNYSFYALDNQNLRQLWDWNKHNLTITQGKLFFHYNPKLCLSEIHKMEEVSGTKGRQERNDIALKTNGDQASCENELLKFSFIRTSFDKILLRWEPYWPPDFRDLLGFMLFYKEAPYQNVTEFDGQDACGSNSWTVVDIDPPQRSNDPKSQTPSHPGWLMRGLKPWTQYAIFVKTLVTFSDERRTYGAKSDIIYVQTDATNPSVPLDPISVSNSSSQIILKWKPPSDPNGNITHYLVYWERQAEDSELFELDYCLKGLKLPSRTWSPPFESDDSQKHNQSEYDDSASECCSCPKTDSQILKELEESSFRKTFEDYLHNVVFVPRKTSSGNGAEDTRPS
Method for rat adipocytes: Adipocytes were prepared by incubating epididymal and perirenal fat pads obtained from male rats weighing 200-300 g with 1.0 mg/ml collagenase for 60 min at 37° C., followed by filtration through gauze and then through fine-mesh silk. Cells were washed twice by flotation in a clinical centrifuge before suspension for use. The incubation medium was Krebs-Ringer bicarbonate containing half the recommended calcium, 0.5 mM glucose, and 3% fatty acid free bovine serum albumin, with 95% O2 -5% CO2 as the gas phase. […] Cells were preincubated for 45 min at 37° C. before the addition of [3-^3 H] glucose. Incubation was continued for 60 min and stopped by the addition of 0.2 ml of 5N H2 SO4 and 0.2 ml of corn oil to aid in the extraction of lipids. Samples were extracted with 10 ml of Soluscint-0® for 30 min at room temperature before counting the radioactivity in a scintillation counter. Under these conditions, [3-^3 H] glucose was not extracted into the organic phase containing the scintillation fluors and was essentially uncounted.
Stimulation, expressed as per cent of maximum, was plotted as a function of the agonist concentration. The data points represent the mean of triplicate determinations in representative assays performed four times. […]
Stimulation, expressed as per cent of maximum, was plotted as a function of the agonist concentration. […]

On to [10-Aspartic acid-B] human insulin, for which the “potency relative to bovine insulin (concentration ratio required to inhibit 50% of the specific binding of 125I-insulin)” value in assay [1] (rat liver plasma membranes, 45 min at 24° C., pH 7.4, assay performed four times) is “about 534±146%”. Further, the “binding to the insulin receptor, times more tightly than natural insulins” value in assay [1] (relative to natural insulins) was “about five times more tightly”. In addition, the “maximum stimulation of lipogenesis compared with bovine insulin” value in the assay with rat adipocytes is reported as “full agonist”. In addition, the “relative potency (concentration ratio required to produce 50% of the maximum stimulation of lipogenesis) relative to bovine insulin” value in the assay on rat adipocytes ([3-3H] glucose, 60 min, assays performed four times) amounted to 435±144%. Moreover, the “potency in radioimmunoassay relative to bovine insulin” value in assay [2] is given as “approximately equal potency”. For [Asn^B10 ]- insulin, the “potency compared with natural insulin” value with insulin receptor is “reduced potency”. Take [Leu^B10 ]- insulin: the “potency compared with natural insulin” value with insulin receptor is “reduced potency”. Consider [Lys^B10 ] insulin, for which, in the assay with insulin receptor, the “potency compared with natural insulin” value is given as “reduced potency”. As for “des-pentapeptide(B26-B30)-[Phe^B25 -α-carboxamide]insulin”, the “potency compared with natural insulin” value on insulin receptor is “comparable potency”. On to “des-pentapeptide(B26-B30)-[Tyr^B25 -α-carboxamide]insulin”, for which the “potency greater than insulin” value on insulin receptor (literature (Nakagawa et al.; Casareto et al.)) is given as 270-300%.
